Reference: US7077859B2, “Apparatus and methods for variably controlled substance delivery from implanted prostheses” (Avantec Vascular Corporation, priority 2000, dated 2006)

How the values were obtained:
[1] = test system: porcine smooth muscle cell cultures; test: Thymidine incorporation (proliferation) in porcine smooth muscle cell cultures; format: cell-based; details: for IC50: Sus scrofa, amount of incorporated thymidine, concentrations 0.003-156 micromolar, FIGS. 20A-B, read-out: IC50 (concentration at which 50% of the cells are prevented from proliferating)
Procedure: In order to assess the effect of therapeutic capable agents of the present invention on cell cultures, samples of 5 sets of therapeutic capable agents, as listed below, in varying concentrations were prepared and added to different groups of porcine smooth muscle cell cultures according to standard procedures. Set A, B, C, D, and E corresponded to therapeutic capable agent sets: Mycophenolic acid & Dexamethasone; Mycophenolic acid & Triptolide; Wortmannin and Methotrexate; Triptolide; Mycophenolate Mofetil; respectively. The amount of incorporated thymidine for the different samples of varying concentrations (0.003, 0.031, 0.31, 1.6, and 3.1 micromolar) was measured.
In another group of therapeutic capable agents, the amount of incorporated thymidine for samples of varying concentrations (0.003, 0.031, 0.31, 1.6, 3.1, 31, and 156 micromolar) was measured.

[2] = Half life of mycophenolic acid bound to BSA (MPA-BSA), assayed by liquid chromatography; format: in vitro ADME
Source text: The MPA-BSA has an increases half time (as measured by assaying methods such as liquid chromotography) as compared to mycophenolic acid alone and as shown in the table below: […]

C[C@@H]1C[C@H]2[C@@H]3CCC4=CC(=O)C=C[C@]4(C)[C@@]3(F)[C@@H](O)C[C@]2(C)[C@@]1(O)C(=O)CO [Dexamethasone]
Cell death (cell cultures): did not lead to significant cell death

CN(Cc1cnc2nc(N)nc(N)c2n1)c1ccc(C(=O)N[C@@H](CCC(=O)O)C(=O)O)cc1 [Methotrexate]
Cell death (cell cultures): did not lead to significant cell death

C[C@H]1C[C@@H]2[C@H]([C@@H](O)C[C@@]3(C)[C@H]2CC[C@]3(O)C(=O)CO)[C@@]2(C)C=CC(=O)C=C12 [Methylprednisolone, methylprednisolone]
IC50 [1]: 1000 nM

COc1c(C)c2c(c(O)c1C/C=C(\C)CCC(=O)OCCN1CCOCC1)C(=O)OC2 [Mycophenolate Mofetil]
Effectiveness on cell proliferation (incorporated thymidine) ([1]; porcine smooth muscle cell cultures, 0.003-3.1 micromolar, FIG. 19E): may not be as effective in the absence of a bio-condition

COc1c(C)c2c(c(O)c1C/C=C(\C)CCC(=O)O)C(=O)OC2 [Mycophenolic acid, mycophenolic acid]
Cell death (cell cultures): did not lead to significant cell death | IC50 [1]: 1000 nM

CC(C)[C@]12O[C@H]1[C@@H]1O[C@]13[C@]1(O[C@H]1C[C@H]1C4=C(CC[C@@]13C)C(=O)OC4)[C@@H]2O [Triptolide]
Cell death (cell cultures): did not lead to significant cell death

MPA-BSA: mycophenolic acid (MPA) bound to Bovine Serum Albumin disposed adjacent the rate-controlling element, forming a complex
Half Life (T) ([2]; Blood or Tissue BSA Concentration 1%): 1.27 h | Half Life (T) ([2]; Blood or Tissue BSA Concentration 2%): 2.02 h | Half Life (T) ([2]; Blood or Tissue BSA Concentration 4%): 6.07 h | Half Life (T) ([2]; Blood or Tissue BSA Concentration 6%): 32.07 h | Stability of the complex compared to mycophenolic acid alone ([2]; metabolism to glucuronide derivative): more stable than mycophenolic acid alone
